Data published in paper PMC9663578, “A fluorogenic probe for predicting treatment response in non-small cell lung cancer with EGFR-activating mutations” (Nature Communications, 2022).
Where “and” joins values, the source holds several entries; their conditions need not be identical. Equal entries are not always repeated.

Legend:
Hela cells = experiment: FACS assay in cultured cells; conditions: for HX103 dose-dependent signal (Supplementary Fig. 18): 20 µM = 100
Procedure: Briefly, the cultured cells were seeded on the petri dish and counted using Count star BioMed automated cell counter. Around 10^6 live-cells were collected and were pelleted (2000×g, 3 min), followed by washing with PBS (2x). Cells were then resuspended in PBS buffer containing 0.1% BSA (1 × 10^6 cells/mL). […] The cell suspension was resuspended in PBS and analyzed with a FACSVerse^TM flow cytometer (BD Biosciences, LSRFortessa). About 10,000 events per tube were analyzed and the mean fluorescence intensity was detected and analyzed.
For the FACS assay with EGFR antibody, around 10^6 live-cells were collected and washed with PBS (2x). The cells were fixed by 400 µL 4% paraformaldehyde for 15 min at room temperature, followed by permeabilization with 0.1% Triton X-100 for 10 min and blocking with 5% BSA for 30 min. […] The cells were then washed with 0.5% BSA/PBS (3x) and resuspended in 400 µL of 0.1% BSA/PBS. […] The resuspended cell suspension was then analyzed on a FACSVerseTM flow cytometer (BD Biosciences, LSRFortessa). Nonspecific fluorescence binding was omitted by Rabbit mAb IgG isotype control (#3900, CST, 1:100) and the corresponding mean fluorescence was subtracted from the signal measured with each primary antibody. About 10,000 events per tube were analyzed and the mean fluorescence intensity was detected and analyzed.
Subsequently, the treated cells were incubated for 30 min at 37 °C, followed by washing with PBS buffer three times. […] Finally, the co-stained cells were washed with 0.5% BSA/PBS for three times and resuspended in 400 µL of 0.1% BSA/PBS. The obtained cell suspension was ready for analysis. Nonspecific fluorescence binding was omitted by Rabbit mAb IgG isotype control (#3900, CST, 1:100) as described above.
Nonspecific fluorescence binding was omitted by Rabbit mAb IgG isotype control (#3900, CST, 1:100). […] After incubation for another 30 min at room temperature, the co-stained cells were washed with 0.5% BSA/PBS for three times and resuspended in 400 µL of 0.1% BSA/PBS. The obtained cell suspension was ready for analysis. Nonspecific fluorescence binding was omitted by Rabbit mAb IgG isotype control (#3900, CST, 1:100) as described above.
The cells were seeded on the petri dish and cultured at the normal condition with 10% FBS, and that was changed to serum-free condition for 24 h when the cells proliferated at ~80% confluence. […] Nonspecific fluorescence binding was omitted by Rabbit mAb IgG isotype control (#3900, CST, 1:100) as described above.

MTT cytotoxicity assay = format: cell-based; conditions: human, A549 cells, EGFR wild-type, n=3
Procedure: The cytotoxicity of the tested compounds against selected cell lines was measured by 3-(4,5-dimethylthiazol-2-yl)-2,5-diphenl tetrazolium bromide (MTT) assay. Briefly, cells (3000 per well) were plated in 96-well plate for 24 h and 100 µL of medium with di fferent concentrations of the tested compounds was added to each well for 48 h. Then 20 μL of MTT (5 mg/mL, Sigma-Aldrich) was added and incubate at 37 ℃ for 4 h, resulting the formation of the formazan crystal. The formed formazan crystal was dissolved with 150 μL of DMSO after removing the medium. The absorbance of each well was measured at 570 nm wavelength. The inhibition rate was calculated by the formula: (OD control group - OD treated group)/OD control group ×100%. The experiments were repeated at least three times. The IC50 values were determined by plotting a log (inhibitor) vs. normalized response (Variable slope) dose-response curve generated using GraphPad Prism […]
Immunohistochemistry staining
The obtained tumor tissues were sectioned into about 3 µm thickness layers. The general protocol of immunohistochemistry (IHC) was applied for the experiment. Firstly, the tissue slices were deparaffinized in xylene before immersion in 100% ethanol, followed by antigen repair. […]

EGFR T790M = biological target: T1, EGFR T790M (Homo sapiens, UniProt P00533, T790M); experiment: Kinase inhibition assay (fluorescent mobility-shift assay); format: biochemical; set-up: Kinase activity: unit not given here; conditions: for Kinase activity: T790M, n=1-3;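 as to all read-outs here: Cell-free assay with recombinant human EGFR T790M enzyme, compound preincubated with the kinase at room temperature before the reaction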
T1 construct: EGFR T790M (amino acids 668–1210, #PR8052A); purchased Thermo Fisher PR8052A
T1 sequence (P00533 668-1210 T790M): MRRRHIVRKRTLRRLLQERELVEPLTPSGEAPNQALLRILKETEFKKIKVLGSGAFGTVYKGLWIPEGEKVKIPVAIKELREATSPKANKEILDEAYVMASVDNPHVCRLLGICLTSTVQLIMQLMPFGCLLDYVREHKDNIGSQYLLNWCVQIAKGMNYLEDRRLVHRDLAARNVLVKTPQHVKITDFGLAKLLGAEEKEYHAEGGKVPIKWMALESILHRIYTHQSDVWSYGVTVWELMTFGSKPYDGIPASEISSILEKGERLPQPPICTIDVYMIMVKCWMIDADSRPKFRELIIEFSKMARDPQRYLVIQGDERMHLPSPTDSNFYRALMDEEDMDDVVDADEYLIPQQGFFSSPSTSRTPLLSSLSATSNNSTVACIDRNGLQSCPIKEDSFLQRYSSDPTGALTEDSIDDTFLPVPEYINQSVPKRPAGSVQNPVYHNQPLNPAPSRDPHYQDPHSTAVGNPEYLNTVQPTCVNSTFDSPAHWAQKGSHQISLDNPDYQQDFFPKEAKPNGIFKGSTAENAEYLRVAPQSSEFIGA

[1] = Measurement of optical properties; format: physicochemical; conditions: for Fluorescence intensity, HX103 only: Fig. 2a
Procedure: page 66: […] Measurement of optical properties In the study, UV-vis spectra of the probes were determined on a Hitachi U-2910. The fluorescence spectroscopic experiments were performed on BioTek microplate reader and Horiba Jobin Yvon - Edison Fluoromax-4. Absolute fluorescence quantum efficiency was measured by an absolute quantum yield spectrometer (Horiba Jobin Yvon-Edison Fluoromax-4). The tested probe was dissolved in dimethyl sulfoxide (DMSO) to obtain stock solutions (10 mM). The prepared stock […] concentration solution, containing 0.1% (v/v) DMSO as a cosolvent. For the in vitro kinase […] The excitation and emission fluorescence spectra of the solution before/after addition o f different concentration […] Data analysis:The obtained fluorescence intensity at 570 nm (Excitation wavelength was 440 nm) in each sample was normalized by using the fluorescence intensity of HX103 in the presence of EGFR. Specifically, the fluorescence intensity of HX103 in the presence of EGFR wild-type […] 66

H1975 cells = experiment: Subcellular co-localization of HX103 (confocal); format: cell-based, human; conditions: HX103 5 µM, 0.5 h, ER/Mito/Lyso trackers
Procedure: Supplementary Figure 6. Application of HX103 in living cells. (a-c) Subcellular co-localization of HX103 with Lyso tracker (a), Mito tracker (b) or ER tracker (c). H1975 cells were treated with HX103 (5 µM, 0.5 h) and stained with Lyso tracker ([…], 30 min), Mito tracker (100 nM, 15 min) or ER tracker (500 nM, 15 min). After a PBS washing, the cells were used for confocal microscopy. Scale bar, 20 µm. Three biological independent experiments were repeated with similar results. (d) The mean fluorescence intensity analysis along white arrows in the overlay image in (a-c). Source data are provided as a Source Data file.
(1 picture or pasted object on this page, not shown here)

EGFR wild-type = biological target: T2, EGFR wild-type (Homo sapiens, UniProt P00533); experiment: Fluorescence turn-on response / titration of HX103 with recombinant EGFR;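 as to Fluorescence intensity at 570 nm: 100% is HX103 fluorescence with wild-type EGFR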; format: binding; conditions: for Fluorescence intensity at 570 nm / Fluorescence response of HX103 to EGFR wild-type: n=1-3; for Fluorescence intensity, Wild-type: Fig. 2c; for Fluorescence response of HX103 to EGFR wild-type: Supplementary Fig. 2f
T2 construct: Recombinant human EGFR (amino acids 668–1210, #PR7295B); purchased Thermo Fisher PR7295B
T2 sequence (P00533 668-1210): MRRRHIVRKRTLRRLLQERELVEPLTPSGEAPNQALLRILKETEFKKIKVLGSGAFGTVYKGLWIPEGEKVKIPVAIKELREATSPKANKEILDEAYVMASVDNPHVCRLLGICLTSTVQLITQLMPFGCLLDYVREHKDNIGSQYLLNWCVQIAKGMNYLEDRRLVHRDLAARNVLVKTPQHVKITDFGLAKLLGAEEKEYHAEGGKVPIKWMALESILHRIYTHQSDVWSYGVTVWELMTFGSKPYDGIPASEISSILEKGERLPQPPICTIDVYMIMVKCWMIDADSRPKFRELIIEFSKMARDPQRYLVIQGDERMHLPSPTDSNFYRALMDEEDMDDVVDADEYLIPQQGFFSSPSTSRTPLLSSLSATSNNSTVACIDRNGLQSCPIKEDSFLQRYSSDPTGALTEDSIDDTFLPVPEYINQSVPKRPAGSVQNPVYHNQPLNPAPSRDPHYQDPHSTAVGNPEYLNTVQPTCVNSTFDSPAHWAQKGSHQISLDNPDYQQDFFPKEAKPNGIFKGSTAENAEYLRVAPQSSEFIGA
Procedure: (d) Fluorescence spectra change of HX103 (5 µ M) with increasing concentration of EGFR L858R
(e) Fluorescence spectra change of HX103 (5 µ M ) with
increasing concentration of EGFR 19del (0 to 6 µM) in PBS buffer. (f) Titration curve of HX103
(5 µM) with increasing concentration of EGFRs (0 to 6 µM). The apparent binding affinity (Kd)
The fluorescence titration curve was fitted on one -
site specific binding model. I and I0 represent the intensities of HX103 at 570 nm in the presence
and absence of protein. Data represent average val ues ± SD, n = 3 independent experiments per
solution was diluted in sodium phosphate buffer (PBS, 1 M, pH=7.4) to obtain the desired final
Data analysis：The obtained fluorescence intensity at 570 nm (Excitation wavelength was 440
was set at 100% to normalized that of the remaining samples.

- decrease of inhibition toward T790M compared to 19del (EGFR T790M; IC50 T790M vs 19del): ~ 750 fold
- decrease of inhibition toward T790M compared to L858R (EGFR T790M; IC50 T790M vs L858R): ~ 650 fold
- Kinase activity (EGFR T790M; Log [HX103 (M)] -4.5): 14.55 and 14.95 and 12.5
- Kinase activity (EGFR T790M; Log [HX103 (M)] -5): 16 and 19.07 and 16.33
- Kinase activity (EGFR T790M; Log [HX103 (M)] -5.5): 24.68 and 25.89 and 23.04
- Kinase activity (EGFR T790M; Log [HX103 (M)] -6): 50.45 and 49.72 and 50.33
- Kinase activity (EGFR T790M; Log [HX103 (M)] -6.5): 74.42 and 70.48 and 67.65
- Kinase activity (EGFR T790M; Log [HX103 (M)] -7): 85.94 and 86.13 and 86.01
- Kinase activity (EGFR T790M; Log [HX103 (M)] -7.5): 96.44 and 90.88 and 91.86
- Kinase activity (EGFR T790M; Log [HX103 (M)] -8): 104.4 and 100.7 and 101.1
- Kinase activity (EGFR T790M; Log [HX103 (M)] -8.5): 97.33 and 103.4 and 97.96
- Kinase activity (EGFR T790M; Log [HX103 (M)] -9): 98.09 and 98.85 and 98.65
- IC50 (EGFR T790M; n = 3): 977 nM
- Stokes shift [1]: 130 nm
- excitation maximum [1]: 340/440
- absolute quantum yield ([1]; DMSO): 42.4%
- maximum UV absorption ([1]; DMSO): 342/438
- Fluorescence intensity, HX103 only ([1]; wavelength 666 nm): 328.882
- Fluorescence intensity, HX103 only ([1]; wavelength 669 nm): 313.191
- Fluorescence intensity, HX103 only ([1]; wavelength 671 nm): 290.291
- Fluorescence intensity, HX103 only ([1]; wavelength 673 nm): 261.813
- Fluorescence intensity, HX103 only ([1]; wavelength 676 nm): 236.251
- Fluorescence intensity, HX103 only ([1]; wavelength 678 nm): 222.471
- Fluorescence intensity, HX103 only ([1]; wavelength 681 nm): 229.28
- Fluorescence intensity, HX103 only ([1]; wavelength 683 nm): 261.184
- Fluorescence intensity, HX103 only ([1]; wavelength 686 nm): 315.405
- Fluorescence intensity, HX103 only ([1]; wavelength 688 nm): 388.462
- Fluorescence intensity, HX103 only ([1]; wavelength 690 nm): 476.875
- Fluorescence intensity, HX103 only ([1]; wavelength 693 nm): 577.288
- Fluorescence intensity, HX103 only ([1]; wavelength 695 nm): 686.662
- Fluorescence intensity, HX103 only ([1]; wavelength 698 nm): 802.01
- Fluorescence intensity, HX103 only ([1]; wavelength 700 nm): 920.343
- Fluorescence intensity at 570 nm ([1]; Fig. 2b, HX103 alone, n=1-3): 8.2448 and 8.538 and 6.65
- absolute quantum yield ([1]; PBS): 5.8%
- fluorescence emission wavelength ([1]; excitation at 440 nm): 570 nm
- Fluorescence intensity at 570 nm (EGFR wild-type; Fig. 2b, EGFR+Afa.+HX103): 40.8352 and 40.5015 and 39.6477
- Fluorescence intensity at 570 nm (EGFR wild-type; Fig. 2b, EGFR+Compound 4+HX103): 34.8404 and 34.012 and 33.2139
- Fluorescence intensity at 570 nm (EGFR wild-type; Fig. 2b, EGFR+Gef.+HX103): 52.1782 and 56.1359 and 43.6715
- Fluorescence intensity at 570 nm (EGFR wild-type; Fig. 2b, EGFR+HX103): 102.993 and 106.909 and 90.0974
- Fluorescence intensity, Wild-type (EGFR wild-type; wavelength 666 nm): 3857.08
- Fluorescence intensity, Wild-type (EGFR wild-type; wavelength 669 nm): 3668.59
- Fluorescence intensity, Wild-type (EGFR wild-type; wavelength 671 nm): 3481.17
- Fluorescence intensity, Wild-type (EGFR wild-type; wavelength 673 nm): 3297.98
- Fluorescence intensity, Wild-type (EGFR wild-type; wavelength 676 nm): 3120.62
- Fluorescence intensity, Wild-type (EGFR wild-type; wavelength 678 nm): 2950.6
- Fluorescence intensity, Wild-type (EGFR wild-type; wavelength 681 nm): 2789.44
- Fluorescence intensity, Wild-type (EGFR wild-type; wavelength 683 nm): 2638.8
- Fluorescence intensity, Wild-type (EGFR wild-type; wavelength 686 nm): 2500.58
- Fluorescence intensity, Wild-type (EGFR wild-type; wavelength 688 nm): 2376.72
- Fluorescence intensity, Wild-type (EGFR wild-type; wavelength 690 nm): 2269.12
- Fluorescence intensity, Wild-type (EGFR wild-type; wavelength 693 nm): 2178.16
- Fluorescence intensity, Wild-type (EGFR wild-type; wavelength 695 nm): 2100.14
- Fluorescence intensity, Wild-type (EGFR wild-type; wavelength 698 nm): 2030.74
- Fluorescence intensity, Wild-type (EGFR wild-type; wavelength 700 nm): 1965.66
- Fluorescence intensity at 570 nm (EGFR wild-type; Fig. 2d, HX103 with EGFR WT): 95.7649 and 96.5955 and 107.639
- fluorescence turn-on response (EGFR wild-type; HX103 5 µM in PBS buffer (0.1% DMSO), 570 nm): high fluorescence
- Kd (EGFR wild-type; HX103 5 µM, EGFR 0 to 6 µM in PBS, one-site specific binding model, read-out: apparent binding affinity (Kd)): 2700 ± 400 nM
- Fluorescence response of HX103 to EGFR wild-type (EGFR wild-type; EGFR 0.1 µM): 1.163 and 1.321 and 1.006
- Fluorescence response of HX103 to EGFR wild-type (EGFR wild-type; EGFR 0.5 µM): 2.913 and 3.724 and 2.102
- Fluorescence response of HX103 to EGFR wild-type (EGFR wild-type; EGFR 5 µM): 10.0441 and 11.0703 and 9.62
- Fluorescence response of HX103 to EGFR wild-type (EGFR wild-type; EGFR 6 µM): 11.047 and 11.7068 and 10.3878
Structure (SMILES): COc1cc2c(Nc3ccc(F)c(Cl)c3)ncnc2cc1OCCCNc1ccc(S(=O)(=O)N(C)C)c2nonc12 [HX103]
- normalized MFI of HX103 labeling (Hela cells; HX103 5 µM, 30 min, replicates n=1-3): 54.5064% and 65.6652% and 60.0858%
- EGFR(+) HX103 (+) (%) (Hela cells; HX103 5 µM, replicates n=1-3): 13.055% and 13.1% and 19.51%
- EGFR(+) HX103 (+) (%) AVE (Hela cells; Hela, AVE of n=3): 15.2217%
- HX103 (+) (%) AVE (Hela cells; Hela, AVE of n=3): 15.7267%
- HX103 dose-dependent signal (Supplementary Fig. 18) (Hela cells; Hela, HX103 0.37 µM): 10.7485 and 20.011 and 16.0693
- HX103 dose-dependent signal (Supplementary Fig. 18) (Hela cells; Hela, HX103 1.1 µM): 23.8614 and 34.4348 and 25.4882
- HX103 dose-dependent signal (Supplementary Fig. 18) (Hela cells; Hela, HX103 3.3 µM): 36.4324 and 54.3602 and 56.4764
- HX103 dose-dependent signal (Supplementary Fig. 18) (Hela cells; Hela, HX103 10 µM): 67.5297 and 65.6787 and 69.9637
- HX103 dose-dependent signal (Supplementary Fig. 18) (Hela cells; Hela, HX103 15 µM): 106.382 and 89.2391 and 92.3446
- HX103 dose-dependent signal (Supplementary Fig. 18) (Hela cells; Hela, HX103 20 µM): 100
- HX103 signal (Supplementary Fig. 7) (Hela cells; Hela, HX103 alone or with Gefitinib, replicates n=1-3): 110.043 and 93.8574 and 96.1
- EGFR(+) HX103 (+) (%) (Hela cells; Hela, replicates n=1-3): 19.51% and 13.055% and 13.1%
- HX103(+) (%) (Hela cells; Hela, replicates n=1-3): 15.88% and 13.1% and 18.2%
- IC50 at 48 h (MTT cytotoxicity assay): 18000 nM
- subcellular distribution of HX103-labeled EGFR (H1975 cells): internalized and translocated in the endoplasmic reticulum
